9 compounds from US10407463B2, “Method for producing alpha-form crystal of reduced glutathione, and method for storing said crystal” (KYOWA HAKKO BIO CO., LTD., priority 2015, dated 2019) can be followed below.

A short description of data set [1]: Suppression of transition to β-form crystal by habit modifier in α-form crystal slurry (Example 1). It is filed as physicochemical. The settings on record: 0.45 g added to 9 g α-form crystals in 30 mL water; 25° C., 24 hr; microscopic observation. Here is the method:
α-Form crystals of reduced glutathione (9 g) and water (30 mL) were mixed in a glass bottle. […] The glass bottle was shaken in a tray dryer set to 25° C. for 24 hr.

Data set [2] in a line: Amount of habit modifier needed to suppress β-form crystal development in aqueous reduced glutathione solution (Example 4). It is filed as physicochemical. Particulars: 10° C. The source says:
The results of the elapsed time and changes in the concentration of reduced glutathione due to the presence or absence of a habit modifier are shown in Table 3.

A short description of data set [3]: Concentration crystallization of reduced glutathione with 10 wt % habit modifier, production method (2) (Example 6). In kind it is physicochemical. Particulars: 10 wt % added; concentrate cooled to 25° C., stirred 24 hr; microscopic observation. Here is the method: (§1) Reduced glutathione (50 g) and water (500 mL) were added to a 1 L beaker. […] The prepared solution (filtrate) was concentrated by an evaporator such that the concentration of reduced glutathione was not less than the saturation solubility of α-form crystal to perform concentration crystallization of reduced glutathione.

A short description of data set [4]: Concentration crystallization of reduced glutathione with habit modifier, production method (1) (Example 5). The settings on record: 2.5 g added to 50 g reduced glutathione; concentrate cooled to 25° C., stirred 24 hr; microscopic observation. In kind it is physicochemical. The protocol: as §1
For data set [5] the following is noted: not told.
Excerpt: The crystals precipitated during stirring are observed under a microscope, and it is judged whether the crystals are all α-form crystals or development of β-form crystal or transition to β-form crystal has occurred. Since the shape of α-form crystal, which is a large columnar crystal, is markedly different from that of β-form crystal, which is a small needle crystal, they can easily be distinguished by microscopic observation. […] The permeability can be expressed by permeability (T %) 430 nm=100×10^−A (A=Abs: 430 nm, 1 cm). When β-form crystal having low solubility is present, the permeability of the solution is lowered since the crystals left undissolved are detected as turbidity. Since the development of β-form crystal causes crystallization and a lower concentration of reduced glutathione in the solution in the slurry than that of a solution containing α-form crystal alone, the kind of the coexisting crystals can also be distinguished by measuring the concentration of reduced glutathione in the mother liquor from which the coexisting crystals have been removed. The concentration of reduced glutathione in the mother liquor is measured by removing the coexisting crystals by filtration and the like, diluting same with mobile phase to a given concentration, maintaining with stirring for a sufficient time, and measuring the concentration under the following HPLC conditions.
After 3 hr, the crystals (each 1 g) were dissolved in water (10 mL) at 25° C., the permeability at 430 nm was measured, and the turbidity was confirmed to determine the presence or absence of transition to β-form crystal.
The conditions of data set [6]: at 10° C., in water. The text has this:
The crystal of reduced glutathione includes two kinds of crystal polymorphs of α-form crystal and β-form crystal (non-patent document 1). […] Therefore, the β-form crystal having low solubility is associated with problems that it is difficult to process as a raw material and cannot be handled with ease.

Marks after values point to notes of the source that are not given here. Peptide text beside a SMILES is read from it.

As to `C[C@H](N)C(=O)O` [L-Ala, L-alanine], the “transition of α-form crystal to β-form crystal” value (“transition of α-form crystal” for short) in data set [1] was “suppression of the transition”. Also, in data set [2] (0.01 wt %-1 wt % added, 15 hr), the “development of β-form crystal” value is recorded as “suppressed development of β-form crystal”. The “concentration (g/L) of reduced glutathione” value is 94.2* g/L in data set [2] (amount added 0.01%, elapsed time 0 h); 89.2* g/L in data set [2] (amount added 0.01%, elapsed time 15 h); 94.2* g/L in data set [2] (amount added 0.1%, elapsed time 0 h); 91.2* g/L in data set [2] (amount added 0.1%, elapsed time 15 h); 94.2* g/L in data set [2] (amount added 1.0%, elapsed time 0 h); 92.6* g/L in data set [2] (amount added 1.0%, elapsed time 15 h). Besides, the crystal form produced entry in data set [3] and in data set [4] was “produced α-form crystal alone” in each case. Also, the “permeability (%)” value in data set [5] is reported as 100%.

Regarding `N[C@@H](CS)C(=O)O` [L-Cys, L-cysteine], the “transition of α-form crystal” value in data set [1] is listed as “suppression of the transition”. The crystal form produced result in data set [3] and in data set [4] was “produced α-form crystal alone” each time. In addition, the “permeability (%)” value in data set [5] was 100%.

For the compound `O=C(O)[C@H]1CCCN1` [D-Pro, D-proline], the “transition of α-form crystal” value in data set [1] is recorded as “suppression of the transition”.

The compound `N[C@@H](CCC(=O)N[C@@H](CS)C(=O)NCC(=O)O)C(=O)O` [β-form crystal, reduced glutathione] gave a saturated solubility in data set [6] of 30 mg/mL.

In data set [6], `N[C@@H](CCC(=O)N[C@@H](CS)C(=O)NCC(=O)O)C(=O)O` [α-form crystal, reduced glutathione] gave a saturated solubility of 89 mg/mL.

In the case of `C[C@H](N)C(=O)N[C@@H](CS)C(=O)O` [AlaCys, L-alanyl-L-cysteine] (H-Ala-Cys-OH), in data set [1], the “transition of α-form crystal” value is given as “suppression of the transition”. Also, the “permeability (%)” value in data set [5] is listed as 99%.

With `N[C@@H](Cc1c[nH]c2ccccc12)C(=O)O` [L-Trp, L-tryptophan], in data set [1], the “transition of α-form crystal” value was “suppression of the transition”. Besides, the “permeability (%)” value in data set [5] stood at 99%.

On to `Cl.N[C@@H](Cc1c[nH]cn1)C(=O)O` [L-His, L-histidine hydrochloride, reference compound], for which the “permeability (%)” value in data set [5] amounted to 95%.

On to `N[C@@H](Cc1ccccc1)C(=O)O` [L-Phe, L-phenylalanine], for which the “transition of α-form crystal” value in data set [1] is given as “suppression of the transition”. For the same compound, the “permeability (%)” value in data set [5] was 100%.
